This is an account of results in patent US20140113931A1, “SUBSTITUTED PICOLINAMIDE KINASE INHIBITORS” (Portola Pharmaceuticals, Inc., priority 2012, published 2014).

The structures appear in SMILES notation.

The test addresses T1, full length active recombinant SYK enzyme (Homo sapiens, UniProt P43405).
T1 construct: full length active recombinant SYK enzyme (Millipore, CA); purchased Millipore, CA
The test is described as follows: Inhibition of Syk tyrosine phosphorylation activity (LANCE TR-FRET kinase assay). The note with it: 1 nM active SYK enzyme, 550 nM SYK-substrate, 100 μM ATP, 1 hour at room temperature. In kind it is biochemical. As to the method: The in vitro and in vivo human Syk activities of the inventive compounds can be determined by various procedures known in the art, such as a test for their ability to inhibit the activity of human plasma Syk. […] The IC50 value is the concentration (in nM) of the compound required to provide 50% inhibition of human Syk proteolytic activity.
An in vitro assay for detecting and measuring inhibition activity against Syk is as follows:
SYK tyrosine phosphorylation activity is measured using the LANCE™ Technology developed by Perkin Elmer Life and Analytical Sciences (Boston, Mass.). LANCE™ refers to homogeneous time resolved fluorometry applications using techniques such as time-resolved fluorescence resonance energy transfer assay (TR-FRET) (see generally for procedures in Perkin Elmer Application Note—How to Optimize a Tyrosine Kinase Assay Using Time Resolved Fluorescence-Based LANCE Detection, wwww.perkinelmer.com/lifesciences). The assay principle involves detection of a phosphorylated substrate using energy transfer from a phosphospecific europium-labeled antibody to streptavidin-allophycocyanin as an acceptor.
Molecules are reconstituted in 30% DMSO and serially diluted 1:3 with the final dilution containing DMSO in the absence of the candidate molecule. The final DMSO concentration in the assay is 3%. Kinase assays are performed as a two part reaction. The first reaction is a kinase reaction and which comprises of a candidate molecule, full length active recombinant SYK enzyme (Millipore, CA) and biotin-labeled SYK-specific substrate biotin-DEEDYESP-OH. The second reaction involves termination of the kinase reaction and the simultaneous addition of the detection reagents-europium-labeled anti-phosphotyrosine reagent (Eu-W1024-PY100, Perkin Elmer, Boston, Mass.) and Streptavidin-Allophycocyanin detection reagent (SA-APC, Prozyme, CA). The kinase reaction is performed in a black U-bottom 96-well microtitre plate. The final reaction volume is 50 μL and contains a final concentration of 1 nM active SYK enzyme, 550 nM SYK-substrate, and 100 μM ATP diluted in a buffer containing 50 mM Tris pH 7.5, 5 mM MgCl2, and 1 mM DTT. The reaction is allowed to proceed for 1 hour at room temperature. The quench buffer contains 100 mM Tris pH 7.5, 300 mM NaCl2, 20 mM EDTA, 0.02% Brij35, and 0.5% BSA. The detection reagents are added to the reaction mixture at the following dilutions-1:500 for Eu-W1024-PY100 and 1:250 for SA-APC. The kinase reaction is terminated by the addition of 50 μL quench buffer containing the detection reagents. The detection is allowed to proceed for 1 hr at room temperature. Detection of the phosphorlated substrate in the absence and presence of inhibitors is measured in the TR-FRET instrument, Analyst HT (Molecular Probes, Sunnyvale, Calif.) and the condition for measurements are set up using CriterionHost Release 2.0 (Molecular Probes, Sunnyvale, Calif.). The settings used are a follows: excitation 360 nm, emission 665-7.5 nm, beam splitter 350 nm 50/50, flash 100 pulses, delay 60 us, integration 400 us, z-height 2 mm. Inhibition of SYK-tyrosine kinase activity is calculated as the maximum response observed in the presence of inhibitor, compared to that in the absence of inhibitor. IC50s were derived by non-linear regression analysis.
On to `Cn1cc(Nc2cc(N[C@@H]3CCCC[C@@H]3N)cnc2C(N)=O)cn1` [Example 24, 5-((1R,2S)-2-aminocyclohexylamino)-3-(1-methyl-1H-pyrazol-4-ylamino)picolinamide], for which the IC50 (commonly the concentration needed to halve the response being measured) lay in the range of 100 to 1000 nM.

Consider `NC(=O)c1ncc(N[C@@H]2CCOC[C@@H]2N)cc1Nc1cc(-c2cccnc2)no1` [Example 53, 5-((3R,4R)-3-aminotetrahydro-2H-pyran-4-ylamino)-3-(3-(pyridin-3-yl)isoxazol-5-ylamino)picolinamide], for which the IC50 fell in the range of 10 to 100 nM.

`NC(=O)c1ncc(N[C@@H]2CCCC[C@@H]2N)cc1Nc1cccc(-c2ncco2)c1` [Example 55, 5-(((1R,2S)-2-aminocyclohexyl)amino)-3-((3-(oxazol-2-yl)phenyl)amino)picolinamide]: the IC50 was 10 to 100 nM.

Take `Cc1cc(Nc2cc(NC3(C(N)=O)CC3)cnc2C(N)=O)sn1` [Example 32, 5-(1-carbamoylcyclopropylamino)-3-(3-methylisothiazol-5-ylamino)picolinamide]: the IC50 lay within 1 to 10 nM.

Turning to `Cc1cc(Nc2cc(N[C@H](C)C(N)=O)cnc2C(N)=O)sn1` [Example 43, (R)-5-(1-amino-1-oxopropan-2-ylamino)-3-(3-methylisothiazol-5-ylamino)picolinamide], the IC50 lay within 10 to 100 nM.

Regarding `CC(C)[C@@H](Nc1cnc(C(N)=O)c(Nc2cc(C3CC3)no2)c1)C(N)=O` [Example 35, (R)-5-(1-amino-3-methyl-1-oxobutan-2-ylamino)-3-(3-cyclopropylisoxazol-5-ylamino)picolinamide], the IC50 was 10 to 100 nM.

For `NC(=O)c1ncc(N[C@@H]2CCCC[C@@H]2N)cc1Nc1cc(-c2cccnc2)no1` [Example 50, 5-((1R,2S)-2-aminocyclohexylamino)-3-(3-(pyridin-3-yl)isoxazol-5-ylamino)picolinamide], the IC50 is 10 to 100 nM.

With `Cc1cc(Nc2cc(N[C@H](CC3CC3)C(N)=O)cnc2C(N)=O)sn1` [Example 3, (R)-5-(1-amino-3-cyclopropyl-1-oxopropan-2-ylamino)-3-(3-methylisothiazol-5-ylamino)picolinamide], the IC50 lay in the range of 1 to 10 nM.

With `CC[C@@H](Nc1cnc(C(N)=O)c(Nc2cc(C3CC3)ns2)c1)C(N)=O` [Example 38, (R)-5-(1-amino-1-oxobutan-2-ylamino)-3-(3-cyclopropylisothiazol-5-ylamino)picolinamide], the IC50 is 1 to 10 nM.

As for `CC(C)C[C@@H](Nc1cnc(C(N)=O)c(Nc2nc(-c3ccccc3)no2)c1)C(N)=O` [Example 30, (R)-5-((1-amino-4-methyl-1-oxopentan-2-yl)amino)-3-((3-phenyl-1,2,4-oxadiazol-5-yl)amino)picolinamide], the IC50 lay within 10 to 100 nM.

As for `NC(=O)c1ncc(N[C@@H]2CCCC[C@@H]2N)cc1Nc1cc(-c2ccncc2)no1` [Example 49, 5-((1R,2S)-2-aminocyclohexylamino)-3-(3-(pyridin-4-yl)isoxazol-5-ylamino)picolinamide], the IC50 fell in the range of 1 to 10 nM.

For `NC(=O)c1ncc(N[C@@H]2CCCC[C@@H]2N)cc1Nc1ccc2cccnc2c1` [Example 15, 5-((1R,2S)-2-aminocyclohexylamino)-3-(quinolin-7-ylamino)picolinamide], the IC50 lay in the range of 10 to 100 nM.

Consider `NC(=O)c1ncc(N[C@@H]2CCCC[C@@H]2N)cc1Nc1nc(-c2ccccc2)no1` [Example 29, 5-(((1R,2S)-2-aminocyclohexyl)amino)-3-((3-phenyl-1,2,4-oxadiazol-5-yl)amino)picolinamide], for which the IC50 lay within 10 to 100 nM.

`Cc1cc(Nc2cc(N[C@H](CC(F)(F)F)C(N)=O)cnc2C(N)=O)sn1` [Example 44, (R)-5-(1-amino-4,4,4-trifluoro-1-oxobutan-2-ylamino)-3-(3-methylisothiazol-5-ylamino)picolinamide]: the IC50 was below 1 nM.

Consider `NC(=O)c1ncc(N[C@@H]2CCOC[C@@H]2N)cc1Nc1cc(-c2ccncc2)no1` [Example 52, 5-((3R,4R)-3-aminotetrahydro-2H-pyran-4-ylamino)-3-(3-(pyridin-4-yl)isoxazol-5-ylamino)picolinamide], for which the IC50 was 10 to 100 nM.

With `NC(=O)c1ncc(N[C@@H]2CCCC[C@@H]2N)cc1Nc1ccc2ccncc2c1` [Example 14, 5-((1R,2S)-2-aminocyclohexylamino)-3-(isoquinolin-7-ylamino)picolinamide], the IC50 is 10 to 100 nM.

Turning to `NC(=O)c1ncc(N[C@@H]2CCCC[C@@H]2N)cc1Nc1cc(-c2ccccc2)no1` [Example 8, 5-((1R,2S)-2-aminocyclohexylamino)-3-(3-phenylisoxazol-5-ylamino)picolinamide], the IC50 was in the range of 1 to 10 nM.

For the molecule `Cc1cc(Nc2cc(N[C@H]3CC[C@@H](N)CC3)cnc2C(N)=O)sn1` [Example 26, 5-((1S,4S)-4-aminocyclohexylamino)-3-(3-methylisothiazol-5-ylamino)picolinamide], the IC50 lay in the range of 10 to 100 nM.

`NC(=O)c1ncc(N[C@@H]2CCCC[C@@H]2N)cc1Nc1ccc2cnccc2c1` [Example 12, 5-((1R,2S)-2-aminocyclohexylamino)-3-(isoquinolin-6-ylamino)picolinamide]: the IC50 fell in the range of 10 to 100 nM.

As to `CC(C)C[C@@H](Nc1cnc(C(N)=O)c(Nc2ccc3ncccc3c2)c1)C(N)=O` [Example 16, (R)-5-(1-amino-4-methyl-1-oxopentan-2-ylamino)-3-(quinolin-6-ylamino)picolinamide], the IC50 fell in the range of 10 to 100 nM.

For the molecule `CC(C)(C)C[C@@H](Nc1cnc(C(N)=O)c(Nc2ccc3cccnc3c2)c1)C(N)=O` [Example 41, (R)-5-(1-amino-4,4-dimethyl-1-oxopentan-2-ylamino)-3-(quinolin-7-ylamino)picolinamide], the IC50 was 1 to 10 nM.
